Test results taken from patent US11812753B2, “Solvent compositions promoting plant growth” (priority 2020, dated 2023).
Like-named read-outs stand apart in the source and are kept apart here.

Legend:
[1] = Active ingredient loading of PGR components in solvent compositions by HPLC; type: physicochemical
Excerpt: To understand if changing the active component loading rate would impact the biological performance of the PGR compositions, two solvent compositions, methoxy propanol and tetrahydrofuryl alcohol, were mixed with various PGR compositions (4×) selected for their favorable solubility properties, curing properties, and compatibility with Rhizobia. Propylene glycol was again included as a control sample, and each composition was mixed with BHT (4×). Citric acid was excluded from all samples. The weight percentage of each PGR component mixed with each solvent composition is shown below in Table 7.
The HPLC was performed using an Agilent 1260 device with a diode-array detector for active component quantification.
[…]. As shown, the deviation was less than 1% for each composition.

[2] = Two-week stability test of solvent / Warden CX mixtures (viscosity, density); type: physicochemical; conditions: mixture with Warden CX; for Post: Density / Post: Viscosity: after two weeks at 54° C., 4° C. and/or −10° C.; for Pre: Viscosity: before two-week stability test
Method: The same seven solvent compositions were then evaluated for their compatibility with Warden® CX, which is a combination of fungicide and insecticide (containing a proprietary solvent) formulated for soybean seed treatment and sold by Winfield® United. Specifically, 0.5 fl. oz./cwt. of each experimental solvent was added to 50 mL of Warden® CX. […] The mixtures were then evaluated for stability by placing the samples at 54° C., 4° C. and/or at −10° C. for a two-week period. Viscosity levels were measured before and after the two-week stability test, along with the post-test density levels, and the results shown below in Table 6.

[3] = from SDS of each solvent, cited from earlier work
[4] = Viscosity of solvent compositions (modular compact rheometer); type: physicochemical; conditions: solvent mixed with 0.1 wt % BHT and 4x PGR composition; 25° C.
Method: (§1) Propylene glycol was used as a control. The evaluated solvents, along with the mass of each PGR component and BHT, are shown below in Table 4. The density and viscosity of the solvent compositions were then determined. The density measurements were obtained using a DMA™ 4500, which was calibrated using 20° C. DI water. Viscosity was determined using a modular compact rheometer. Viscosity levels were measured at 25° C.

[5] = Density of solvent compositions (DMA 4500); type: physicochemical; conditions: solvent mixed with 0.1 wt % BHT and 4x PGR composition
Method: as §1

Molecule | Post: Density [2] [g/mL] | Post: Viscosity [2] [cPa] | Pre: Viscosity [2] [cPa] | Boiling Point [3] [C. °] | Density [3] [g/mL] | Flash Point [3] [C. °] | Solubility [3] | other results
COCC(C)O (centres unmarked) [1-methoxy-2-propanol] | 1.0440 | 106.18 | 1764.63 | 118 | 0.916 | 34 | – | Aux. by HPLC ([1]; 1st composition of Table 7, auxin added 0.6596%): 0.674%; Cyt. by HPLC ([1]; 1st composition of Table 7, cytokinin added 0.0614%): 0.072%; Gib. by HPLC ([1]; 1st composition of Table 7, gibberellin added 0.0460%): 0.046%; Aux. by HPLC ([1]; 2nd composition of Table 7, auxin added 0.6136%): 0.630%; Cyt. by HPLC ([1]; 2nd composition of Table 7, cytokinin added 0.1074%): 0.126%; Gib. by HPLC ([1]; 2nd composition of Table 7, gibberellin added 0.0460%): 0.045%; Aux. by HPLC ([1]; 3rd composition of Table 7, auxin added 0.5215%): 0.531%; Cyt. by HPLC ([1]; 3rd composition of Table 7, cytokinin added 0.1534%): 0.178%; Gib. by HPLC ([1]; 3rd composition of Table 7, gibberellin added 0.0920%): 0.088%; Aux. by HPLC ([1]; 4th composition of Table 7, auxin added 0.4985%): 0.502%; Cyt. by HPLC ([1]; 4th composition of Table 7, cytokinin added 0.1994%): 0.235%; Gib. by HPLC ([1]; 4th composition of Table 7, gibberellin added 0.0690%): 0.069%; Aux. by HPLC ([1]; 5th composition of Table 7, auxin added 0.5675%): 0.579%; Cyt. by HPLC ([1]; 5th composition of Table 7, cytokinin added 0.1074%): 0.130%; Gib. by HPLC ([1]; 5th composition of Table 7, gibberellin added 0.0920%): 0.089%; change of viscosity over the two-week period [2]: decreasing the most
CCOC(C)=O [Ethyl acetate] | – | – | – | 77 | – | −4.4 | Miscible | –
CCCCOCCOCCO [Diethylene glycol butyl ether] | 1.0486 | 45.06 | 112.48 | 228 | 0.953 | 99 | Miscible | Viscosity [4]: 7.7338 cPa
CC(=O)OCC(COC(C)=O)OC(C)=O [Glyceryl triacetate] | – | – | – | 259 | 1.158 | 148 | Soluble | Solubility ([3]; listed as glyceryl triacetate): soluble
CC(O)CO (centres unmarked) [Propylene Glycol, reference compound] | – | – | – | 205 | 1.12 | 138 | Soluble | Solubility ([3]; listed as propylene glycol): soluble
CCCCOCCO [Ethylene glycol butyl ether, 2-butoxyl ethanol] | 1.0263 | 69.69 | 138.49 | 171 | 0.902 | 67 | – | –
CCCCC(CC)COC(=O)C(C)O (centres unmarked) [Lactic acid, 2-ethylhexyl ester] | – | – | – | 122 | 1.2 | – | – | –
CCCCOC(=O)C(C)O (centres unmarked) [Butyl lactate] | 1.1067 | 387.57 | 901.94 | 186 | 0.984 | 69 | Slightly | Viscosity [4]: 5.0736 cPa
CCCCCOC(C)=O [Amyl Acetate] | – | – | – | 149 | 0.87 | 40 | Insoluble | Viscosity [3]: 1.58 cP
CC(=O)OCCCCCCC=O [Oxo-heptyl acetate] | – | – | – | 192 | 0.886 | 43 | Slightly | –
OCC1CCCO1 (centres unmarked) [Tetrahydrofurfyl Alcohol] | 1.0825 | 150.59 | 962.75 | 178 | 1.054 | 75 | Miscible | Aux. by HPLC ([1]; 6th composition of Table 7, auxin added 0.4958%): 0.497%; Cyt. by HPLC ([1]; 6th composition of Table 7, cytokinin added 0.094%): 0.108%; Gib. by HPLC ([1]; 6th composition of Table 7, gibberellin added 0.0804%): 0.081%; Density [5]: 1.0548 g/mL; Viscosity [4]: 5.4046 cPa
Ethyl hexanol | – | – | – | 185 | 0.833 | 75 | – | –
